Experiments:
[1] = biological target: CnArg1 (IP3-4K from C. neoformans) (Cryptococcus neoformans var. grubii, UniProt J9W3G0); assay: Kinase-Glo enzyme inhibition assay, recombinant CnArg1; format: biochemical; details: 10 µM ATP, 50 µM IP3, 2.5 ng/µL enzyme, 10 min, room temperature, 5% DMSO; mean ± SEM
Description: (§1) The 2,6-disubstituted purine compounds are ATP-competitive IPK inhibitors. […] The amount of IP3 and kinase used for each recombinant enzyme was determined following the manufacturer’s instructions, and this concentration was used to assess the inhibitory properties of TNP analogues against each of the recombinant enzymes.
(§2) The analogues were dissolved in DMSO. For the assay, the inhibitors were added to the reaction mixture to achieve a final concentration of 50 µM in 5% DMSO (1:20 dilution). To achieve inhibitor concentrations lower than 50 µM in the assay, the inhibitor stock was first serially diluted two-fold in DMSO and added to the reaction mixture, to achieve concentrations ranging between 0.8 μM and 50 µM in 5% DMSO. Once all analogues and their dilution series had been added, the reaction was started by adding an optimal amount of recombinant IP3-4K enzyme. The reaction was stopped after 10-min incubation at room temperature by adding a 50 µL of Kinase-Glo® reagent. The mixture was incubated at room temperature in the dark for 10–15 min. Luminescence (RLU) was measured using a SpectraMax iD5 and an integration time of 0.5 s. Percent enzyme activity was defined as (RLUnegative − RLUsample)/(RLUnegative − RLUpositive) × 100. ‘Positive’ refers to 100% enzyme activity (no inhibitor used as the positive control), while ‘negative’ refers to 0% enzyme activity (no enzyme used as the negative control).
(§3) Next, we determined the inhibitory properties of TNP. TNP is an ATP-competitive inhibitor [34]. […] IP3 and enzyme concentrations were also optimised following the manufacturer’s instructions. […] This optimal amount of IP3 was then used to test varying concentrations of the kinase ranging from 0 to 20 ng/µL. The amount of kinase that produced luminescence values in the linear range of the kinase titration curve was deemed to be the optimal kinase amount.

[2] = tested on: CnArg1 (IP3-4K from C. neoformans); assay: as above; format: biochemical; details: selectivity, ratio higher than 1 = more selective for CnArg1
Description: as §1, §2, §3

[3] = biological target: HsIPMK (Homo sapiens, UniProt Q8NFU5); assay: Kinase-Glo enzyme inhibition assay, recombinant HsIPMK; also: 6 ng/µL enzyme; format: biochemical; design: GST (N, cleaved yes); made in house; host or cells: E. coli BL21 (DE3); plasmid made by GenScript
Sequence of HsIPMK (Q8NFU5 whole entry): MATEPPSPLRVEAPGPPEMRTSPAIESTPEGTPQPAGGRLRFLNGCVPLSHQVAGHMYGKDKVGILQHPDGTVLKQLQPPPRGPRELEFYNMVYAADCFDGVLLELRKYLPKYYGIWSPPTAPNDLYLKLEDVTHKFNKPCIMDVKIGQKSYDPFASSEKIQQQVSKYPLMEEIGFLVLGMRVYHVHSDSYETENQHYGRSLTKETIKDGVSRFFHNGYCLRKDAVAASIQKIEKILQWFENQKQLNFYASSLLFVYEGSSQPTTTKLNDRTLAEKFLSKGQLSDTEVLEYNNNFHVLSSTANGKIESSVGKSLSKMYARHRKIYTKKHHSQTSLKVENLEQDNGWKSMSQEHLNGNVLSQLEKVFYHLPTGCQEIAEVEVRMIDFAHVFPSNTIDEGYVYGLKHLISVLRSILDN
Description: as §1, §2, §3

[4] = biological target: CnArg1 (Cryptococcus neoformans var. grubii, UniProt J9W3G0); assay: Surface plasmon resonance (SPR) binding to immobilised CnArg1; details: 6.25–200 µM, 10 °C, steady-state affinity, mean ± SEM
Sequence of CnArg1 (J9W3G0 entry or part of it): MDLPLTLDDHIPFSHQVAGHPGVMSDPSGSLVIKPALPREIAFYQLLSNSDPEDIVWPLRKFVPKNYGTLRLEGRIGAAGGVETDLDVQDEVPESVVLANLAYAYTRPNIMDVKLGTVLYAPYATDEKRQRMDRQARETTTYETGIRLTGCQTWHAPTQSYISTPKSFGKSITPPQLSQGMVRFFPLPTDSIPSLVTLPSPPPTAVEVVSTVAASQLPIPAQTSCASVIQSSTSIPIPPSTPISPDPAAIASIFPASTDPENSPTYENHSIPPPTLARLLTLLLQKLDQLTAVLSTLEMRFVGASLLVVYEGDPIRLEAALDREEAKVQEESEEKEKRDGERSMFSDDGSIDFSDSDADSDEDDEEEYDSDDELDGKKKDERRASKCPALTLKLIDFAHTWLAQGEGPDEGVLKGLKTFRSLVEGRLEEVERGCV
Description: SPR was carried out on a Biacore T200 (Cytiva, Marlborough, MA, USA). A streptavidin surface was prepared by amine coupling streptavidin to a CM5 chip using standard procedures in 20 mM HEPES, 150 mM NaCl pH 7.5 at 37 °C. Briefly, the surface was activated by injection of 1:1 NHS:EDC (N-ethyl-N’-(3-(dimethylamino)propyl)carbodiimide/N-hydroxysuccinimide) followed by a 7-min injection of 100 µg/mL streptavidin in 10 mM sodium acetate (pH 4.5) at a flow rate of 2 µL/min. Unreacted groups on the surface were blocked by injection of 1 M ethanolamine (pH 8.0). Purified recombinant CnArg1 was N-terminally biotinylated and immobilised to a level of ~4000 RU onto the streptavidin surface at 25 °C in 20 mM HEPES, 200 mM NaCl, 5 mM MgCl2 (pH 7.5) at a flow rate of 2 µL/min.
For analysis, compounds were prepared to 50 mM in 100% DMSO and diluted to the desired concentration in SPR running buffer; 20 mM HEPES (pH 7.5), 200 mM NaCl, 5 mM MgCl2, 5% DMSO. Analysis was carried out using multi-cycle kinetics over a compound concentration range of 6.25–200 µM in running buffer at 10 °C, with an association time of 60 s and a dissociation time of 120 s. Data were reference subtracted, and a solvent correction applied. Analysis was carried out using Biacore T200 Evaluation Software and all data fit to a 1:1 Langmuir binding isotherm.

Sequence of CnArg1 (IP3-4K from C. neoformans) (Cryptococcus neoformans var. grubii, UniProt J9W3G0) (J9W3G0 entry or part of it): as above

COCCNc1nc(Nc2ccc(O)cc2)nc2[nH]cnc12 [Compound 37]
IC50 [1]: 17 ± 2 µM | HsIPMK/CnArg1 IC50 ratio [2]: 0.4 | IC50 [3]: 7 ± 1 µM | KD [4]: No binding

— article PMC9599641, “TNP Analogues Inhibit the Virulence Promoting IP3-4 Kinase Arg1 in the Fungal Pathogen Cryptococcus neoformans” (Biomolecules, 2022)
